Our source for the IC50 values is patent publication US6984649B1, “Pyridine derivatives” (Bayer Aktiengesellschaft, priority 2000, dated 2006).

The IC50 is the concentration at which inhibition is half-maximal.

Where a name gives a salt, the structure may show the parent alone.

In assay [1] the test system is A549 human lung epithelium cell line. As to the kind of experiment: RANTES production in response to TNF-α from A549 cells. The format is cell-based. To be noted: Homo sapiens, A549, A549 cells, 100 ng/ml TNF-α, read-out: Cellular activity grade (A549) (Cellular IC50). Summed up:
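Cells (4×10^4/well) in D-MEM/10% FCS preincubated 1 h at 37 °C with compound in 1% DMSO, then stimulated with 100 ng/ml TNF-α for 24 h. Supernatant RANTES quantified by Eu-labelled sandwich immunoassay (time-resolved fluorescence, ex 340/em 615 nm) against recombinant human RANTES standard.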

Assay [2] deals with Jurkat T cells. As to the kind of experiment: IL-2 production in Jurkat T cells in response to anti-CD3/anti-CD28 antibody stimulation. The format is cell-based. To be noted: Homo sapiens, read-out: Cellular activity grade (Jurkat) (Cellular IC50).

For `N#Cc1c(C2CCCNC2)cc(-c2ccccc2O)nc1N` (centres unmarked) [Example 1-1, 2-amino-6-(2-hydroxyphenyl)-4-(3-piperidinyl)-nicotinonitrile hydrochloride], the IC50 in assay [1] and in assay [2] was below 1000 nM throughout.

For the molecule `N#Cc1c(C2CCNC2)cc(-c2ccccc2O)nc1N` (centres unmarked) [Example 1-2, 2-amino-6-(2-hydroxyphenyl)-4-(3-pirrolidinyl)nicotinonitrile trifluoroacetate], the IC50 in assay [1] is below 1000 nM; in assay [2], 1000 to 10000 nM.

For `N#Cc1c(N)nc(-c2ccccc2O)c(F)c1C1CCCNC1` (centres unmarked) [Example 1-4, 2-amino-5-fluoro-6-(2-hydroxyphenyl)-4-(3-piperidinyl)-nicotinonitrile trifluoroacetate], the IC50 in assay [1] and in assay [2] was 1000 to 10000 nM each time.

As for `N#Cc1c(C2CCCNC2)cc(-c2ccccc2O)nc1NCc1ccccc1` (centres unmarked) [Example 4-1, 2-(benzylamino)-6-(2-hydroxyphenyl)-4-(3-piperidinyl)nicotinonitrile hydrochloride], the concentration for half-maximal inhibition (IC50) in assay [1] and in assay [2] was 1000 to 10000 nM each time.

Consider `Cc1c(C2CCCNC2)cc(-c2ccccc2O)nc1N` (centres unmarked) [Example 14-1, 2-[6-amino-5-methyl-4-(3-piperidinyl)-2-pyridinyl]phenol hydrochloride], for which the IC50 in assay [1] was below 1000 nM; in assay [2], 1000 to 10000 nM.

On to `O=C1Nc2nc(-c3ccccc3O)cc(C3CCCNC3)c2CO1` (centres unmarked) [Example 18-2, 7-(2-hydroxyphenyl)-5-(3-piperidinyl)-1,4-dihydro-2H-pyrido[2,3-d][1,3]oxazin-2-one hydrochloride], for which the 50% inhibitory concentration (IC50) in assay [1] is below 1000 nM; in assay [2] it was 1000 to 10000 nM.

Consider `N#Cc1c(N2CCOCC2)cc(-c2ccccc2O)nc1N` [Example 34-1, 2-amino-6-(2-hydroxyphenyl)-4-(4-morpholinyl)nicotinonitrile], for which the IC50 in assay [1] was above 10000 nM.

For the molecule `N#Cc1c(N2CCC(C(N)=O)CC2)cc(-c2ccccc2O)nc1N` [Example 34-2, 1-[2-amino-3-cyano-6-(2-hydroxyphenyl)-4-pyridinyl]-4-piperidinecarboxamide], in assay [1], the IC50 is above 10000 nM.

With `N#Cc1c(N2CCCC(N)C2)cc(-c2ccccc2O)nc1N` (centres unmarked) [Example 34-3, 2-amino-4-(3-amino-1-piperidinyl)-6-(2-hydroxyphenyl)nicotinonitrile hydrochloride], in assay [1], the half-inhibitory concentration (IC50) lay within 1000 to 10000 nM.

As for `N#Cc1c(NC2CCCNC2)cc(-c2ccccc2O)nc1N` (centres unmarked) [Example 34-4, 2-amino-6-(2-hydroxyphenyl)-4-(3-piperidinylamino)nicotinonitrile hydrochloride], the IC50 in assay [1] is below 1000 nM.

With `NCCNc1cc(-c2c(O)cccc2OCC2CC2)nc2c1COC(=O)N2` [Example 35-1, 5-[(2-aminoethyl)amino]-7-[2-(cyclopropylmethoxy)-6-hydroxyphenyl]-1,4-dihydro-2H-pyrido[2,3-d][1,3]oxazin-2-one hydrochloride], the IC50 in assay [1] is below 1000 nM.
